Structures can show the parent of a compound that is named as a salt.
Tests used:
Type in all cases: cell-based
Details in all cases: ratio to NECA
adenosine 3 receptor = molecular target: T1, adenosine 3 receptor (Homo sapiens, UniProt P0DMS8); experiment: Agonist activity, CHO cells transfected with human adenosine receptor and CRE-SPAP reporter; forskolin-enhanced cAMP (A3)
T1 construct: expressed in transfected cells; host or cells: CHO cells
T1 sequence (P0DMS8 1-318): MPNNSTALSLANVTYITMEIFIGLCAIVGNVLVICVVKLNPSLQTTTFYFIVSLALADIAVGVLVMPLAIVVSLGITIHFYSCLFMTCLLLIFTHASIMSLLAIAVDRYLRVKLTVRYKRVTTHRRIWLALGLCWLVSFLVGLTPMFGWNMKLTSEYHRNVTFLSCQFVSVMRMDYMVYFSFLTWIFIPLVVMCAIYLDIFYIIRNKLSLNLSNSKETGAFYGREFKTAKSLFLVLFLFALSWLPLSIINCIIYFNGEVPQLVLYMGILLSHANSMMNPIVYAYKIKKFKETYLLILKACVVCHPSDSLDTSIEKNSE
Procedure: (§1) (1) Agonist activity against adenosine 2a, adenosine 1 and adenosine 3 receptor subtypes.
(§2) Agonist selectivity of compounds against other human adenosine receptors is determined using Chinese hamster ovary (CHO) cells transfected with the gene for the relevant human adenosine receptor following a method based on that of Castanon and Spevak, 1994. The CHO cells are also transfected with cyclic AMP response elements promoting the gene for secreted placental alkaline phosphatase (SPAP) (Wood, 1995). The effect of test compounds may be determined by their effects on basal levels of CAMP (A2a) or on forskolin-enhanced cAMP (A1 and A3) as reflected by changes in levels of SPAP. EC50 values for compounds may then be determined as a ratio to that of the non-selective agonist N-ethyl carboxamide adenosine (NECA).

adenosine 1 receptor = molecular target: T2, adenosine 1 receptor (Homo sapiens, UniProt P30542); experiment: Agonist activity, CHO cells transfected with human adenosine receptor and CRE-SPAP reporter; forskolin-enhanced cAMP (A1)
T2 construct: expressed in transfected cells; host or cells: CHO cells
T2 sequence (P30542 1-326): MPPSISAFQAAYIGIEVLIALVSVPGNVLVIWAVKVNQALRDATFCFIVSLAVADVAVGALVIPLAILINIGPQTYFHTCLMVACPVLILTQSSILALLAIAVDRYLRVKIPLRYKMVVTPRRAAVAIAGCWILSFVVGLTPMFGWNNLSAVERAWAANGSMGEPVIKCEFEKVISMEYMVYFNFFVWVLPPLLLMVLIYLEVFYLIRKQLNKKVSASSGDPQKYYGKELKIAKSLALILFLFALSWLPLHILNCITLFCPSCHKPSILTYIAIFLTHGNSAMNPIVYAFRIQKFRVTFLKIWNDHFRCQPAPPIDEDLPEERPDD
Procedure: as §1, §2

adenosine 2a receptor = molecular target: T3, adenosine 2a receptor (Homo sapiens, UniProt P29274); experiment: Agonist activity, CHO cells transfected with human adenosine receptor and CRE-SPAP reporter; basal cAMP (A2a)
T3 construct: expressed in transfected cells; host or cells: CHO cells
T3 sequence (P29274 whole entry): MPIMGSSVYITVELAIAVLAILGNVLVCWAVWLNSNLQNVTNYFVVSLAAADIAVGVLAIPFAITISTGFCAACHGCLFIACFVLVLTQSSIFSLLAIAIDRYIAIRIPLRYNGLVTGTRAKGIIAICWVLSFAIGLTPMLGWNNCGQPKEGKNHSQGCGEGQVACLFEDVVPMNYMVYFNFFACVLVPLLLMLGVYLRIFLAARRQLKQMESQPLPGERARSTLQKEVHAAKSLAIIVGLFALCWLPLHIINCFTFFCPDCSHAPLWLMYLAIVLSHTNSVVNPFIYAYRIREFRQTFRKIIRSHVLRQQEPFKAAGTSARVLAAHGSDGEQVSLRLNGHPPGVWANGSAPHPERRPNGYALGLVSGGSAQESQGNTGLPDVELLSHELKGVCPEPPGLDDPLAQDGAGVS
Procedure: as §1, §2

[1] = * data are minimum values since preparation was found, after testing, to contain an inactive impurity

Structure (SMILES)	A3, EC50 as a ratio of that of NECA (adenosine 3 receptor; [1])	A1, EC50 as a ratio of that of NECA (adenosine 1 receptor; [1])	A2a, EC50 as a ratio of that of NECA (adenosine 2a receptor; [1])	A3, EC50 as a ratio of that of NECA (adenosine 3 receptor; CHO cells, SPAP readout)	A1, EC50 as a ratio of that of NECA (adenosine 1 receptor; CHO cells, SPAP readout)	A2a, EC50 as a ratio of that of NECA (adenosine 2a receptor; CHO cells, SPAP readout)
CCc1noc([C@H]2O[C@@H](n3cnc4c(NC(CC)CC)nc(N[C@H]5CC[C@H](N)CC5)nc43)[C@H](O)[C@@H]2O)n1.O=CO [Example 29, (2R,3R,4S,5S)-2-[2-(trans-4-Amino-cyclohexylamino)-6-(1-ethyl-propylamino)-purin-9-yl]-5-(3-ethyl-[1,2,4]oxadiazol-5-yl)-tetrahydro-furan-3,4-diol formate]	>117	989.5	8.92			
Cc1noc([C@H]2O[C@@H](n3cnc4c(N)nc(NC5CCCC5)nc43)[C@H](O)[C@@H]2O)n1.O=CO [Example 11, (2R,3R,4S,5S)-2-(6-Amino-2-cyclopentylamino-purin-9-yl)-5-(3-methyl-[1,2,4]oxadiazol-5-yl)-tetrahydro-furan-3,4-diol formate]	>266	145.5	6.66			
CCc1noc(C2OC(n3cnc4c(N)nc(NCCc5ccccn5)nc43)C(O)C2O)n1.O=CO.O=CO (stereo not drawn) [Example 8]	>215	>=3865	14.05			
Cc1noc([C@H]2O[C@@H](n3cnc4c(N)nc(NCCc5ccccc5)nc43)[C@H](O)[C@@H]2O)n1.O=C(O)C(F)(F)F [Example 15, (2R,3R,4S,5S)-2-(6-Amino-2-phenethylamino-purin-9-yl)-5-(3-methyl-[1,2,4]oxadiazol-5-yl)-tetrahydro-furan-3,4-diol trifluoroacetate]				>130	>5511	2.29
CCc1noc(C2OC(n3cnc4c(NCC(c5ccccc5)c5ccccc5)nc(NCCN5CCCC5)nc43)C(O)C2O)n1.O=CO.O=CO (stereo not drawn) [Example 39]				>130	4505.4	30.21
Cc1noc([C@H]2O[C@@H](n3cnc4c(NCC(c5ccccc5)c5ccccc5)nc(NCCc5cn(C)cn5)nc43)[C@H](O)[C@@H]2O)n1.O=C(O)C(F)(F)F.O=C(O)C(F)(F)F [Example 1]				>197	1306	1.19
CCc1noc(C2OC(n3cnc4c(N)nc(NCCc5cn(C)cn5)nc43)C(O)C2O)n1 [Example 10, (2R,3R,4S,5S)-2-{6-Amino-2-[2-(1-methyl-1H-imidazol-4-yl)-ethylamino]-purin-9-yl}-5-(3-ethyl-1,2,4]oxadiazol-5-yl)-tetrahydro-furan-3,4-diol diformate]	>269	3449.6	7.66			
CCC(CC)Nc1nc(NCCN2CCOCC2)nc2c1ncn2[C@@H]1O[C@H](c2nc(C)no2)[C@@H](O)[C@H]1O.O=CO [Example 6, (2R,3R,4S,5S)-2-[6-(1-Ethyl-propylamino)-2-(2-morpholin-4-yl-ethylamino)-purin-9-yl]-5-(3-methyl-[1,2,4]oxadiazol-5-yl)-tetrahydro-furan-3,4-diol formate]	>642	>4833	41.35			
CCc1noc([C@H]2O[C@@H](n3cnc4c(NC(CC)CC)nc(NCCN5CCOCC5)nc43)[C@H](O)[C@@H]2O)n1.O=CO [Example 19, (2S,3S,4R,5R)-2-(3-Ethyl-[1,2,4]oxadiazol-5-yl)-5-[6-(1-ethyl-propylamino)-2-(2-morpholin-4-yl-ethylamino)-purin-9-yl]-tetrahydro-furan-3,4-diol formate]	>694	>5860	34.52			
CCc1noc(C2OC(n3cnc4c(NCCC(C)(C)C)nc(NCCc5cn(C)cn5)nc43)C(O)C2O)n1.O=CO.O=CO [Example 48, (2R,3R,4S,5S)-2-{6-(3,3-Dimethyl-butylamino)-2-[2-(1-methyl-1H-imidazol-4-yl)-ethylamino]-purin-9-yl}-5-(3-ethyl-[1,2,4]oxadiazol-5-yl)-tetrahydro-furan-3,4-diol diformate]				>165	16.84	4.40
CCc1noc([C@H]2O[C@@H](n3cnc4c(NCC(c5ccccc5)c5ccccc5)nc(NCCO)nc43)[C@H](O)[C@@H]2O)n1.O=CO [Example 43, (2R,3R,4S,5S)-2-[6-(2,2-Diphenyl-ethylamino)-2-(2-hydroxy-ethylamino)-purin-9-yl]-5-(3-ethyl-[1,2,4]oxadiazol-5-yl)-tetrahydro-furan-3,4-diol formate]				>130	1367.6	6.85
CCc1noc([C@H]2O[C@@H](n3cnc4c(NC(CC)CC)nc(NCCN5CCCCC5)nc43)[C@H](O)[C@@H]2O)n1.O=CO [Example 20, (2S,3S,4R,5R)-2-(3-Ethyl-[1,2,4]oxadiazol-5-yl)-5-[6-(1-ethyl-propylamino)-2-(2-piperidin-1-yl-ethylamino)-purin-9-yl]-tetrahydro-furan-3,4-diol formate]	>694	>=1853	17.08			
CCc1noc(C2OC(n3cnc4c(NCC(c5ccccc5)c5ccccc5)nc(NC(CO)C(C)C)nc43)C(O)C2O)n1 [Example 5, (2R,3R,4S,5S)-2-[6-(2,2-Diphenyl-ethylamino)-2-(1S-hydroxymethyl-2-methyl-propylamino)-purin-9-yl]-5-(3-ethyl-[1,2,4]oxadiazol-5-yl)-tetrahydro-furan-3,4-diol formate]				>309	1391.2	6.12
CCc1noc([C@H]2O[C@@H](n3cnc4c(NC(CC)CC)nc(NCCc5ccccn5)nc43)[C@H](O)[C@@H]2O)n1.O=CO [Example 21, (2S,3S,4R,5R)-2-(3-Ethyl-[1,2,4]oxadiazol-5-yl)-5-[6-(1-ethyl-propylamino)-2-(2-pyridin-2-yl-ethylamino)-purin-9-yl]-tetrahydro-furan-3,4-diol formate]	>303	>5090	9.39			
CCC(CC)Nc1nc(NCCN2CCOCC2)nc2c1ncn2C1OC(c2nc(C3CC3)no2)C(O)C1O.O=CO.O=CO (stereo not drawn) [Example 36]				>194	>9364	20.13
Cc1noc(C2OC(n3cnc4c(NCC(c5ccccc5)c5ccccc5)nc(NCCc5c[nH]cn5)nc43)C(O)C2O)n1 [Example 34, (2R,3R,4S,5S)-2-{6-(2,2-Diphenyl-ethylamino)-2-[2-(1H-imidazol-4-yl)-ethylamino]-purin-9-yl}-5-(3-methyl-[1,2,4oxadiazol-5-yl)-tetrahydro-furan-3,4-diol formate]	231.1	3270.8	8.31			
CCCc1noc([C@H]2O[C@@H](n3cnc4c(NCC(c5ccccc5)c5ccccc5)nc(NCCc5cn(C)cn5)nc43)[C@H](O)[C@@H]2O)n1.O=CO [Example 33, (2R,3R,4S,5S)-2-{6-(2,2-Diphenyl-ethylamino)-2-[2-(1-methyl-1H-imidazol-4-yl)-ethylamino]-purin-9-yl}-5-(3-propyl-[1,2,4]oxadiazol-5-yl)-tetrahydro-furan-3,4-diol formate]	>259	≧815.9	8.35			
